From ChEMBL document CHEMBL1128911 (Bioorg Med Chem Lett, 1996) come the findings set out here.

The target in one assay is Melatonin receptor. The class given is protein assay, Ovis aries.
Assay [1] concerns the target T1, Melatonin receptor (Homo sapiens) (UniProt P48039+P49286). In words: Compound was evaluated for agonistic activity against cAMP production stimulated by forskolin; Potential stimulation. Type of assay: functional. The note with it: Ovis aries; filed as agonist.
Assay [2] deals with T1, Melatonin receptor (Homo sapiens). In words: Binding affinity against ovine pars tuberalis melatonin receptor using 2-[125I]- melatonin radioligand binding assay. The class given is protein assay. The note with it: Ovis aries; target entry is the homologue from another species.

Take `CC(=O)NCCC1CCCc2cc3c(cc21)OCCO3` (stereo not given): the Ki at Melatonin receptor was found to be 62.2 nM. In addition, in assay [1], the Activity entry was “Agonist”. `CC(=O)NCCc1cccc2ccc3c(c12)C(O)CO3` (stereo not given) yielded a Ki on Melatonin receptor of 130 nM. `CC(=O)NCCC1CCCc2ccc3c(c21)CCCO3` (stereo not given): the Ki on Melatonin receptor was 6.17 nM. For the same molecule, the Activity result in assay [1] was “Agonist”. On Melatonin receptor, `CC(=O)NCCc1cccc2ccc3c(c12)C(=O)CO3` displayed a Ki of 13.9 nM. Regarding `CC(=O)NCCc1cccc2ccc3c(c12)CC(C)O3` (stereo not given), in assay [2], the KH came out at 0.0069 pM and the KL stood at 1.2 nM. The molecule `CC(=O)NCCc1cccc2ccc3c(c12)C=CCO3` came in with a Ki on Melatonin receptor of 0.137 nM. The same measure, in the same setting: the figure for `CC(=O)NCCc1cccc2ccc3c(c12)CCCO3` is 0.216 nM.

For orientation: Ki means a measure of affinity in units of concentration, obtained from inhibition or displacement.
